# Results taken from patent US10047086B2, “Imidazopyridines and imidazopyrazines as LSD1 inhibitors” (Incyte Corporation, priority 2014, dated 2018).
# Biological target: LSD-1 enzyme (Homo sapiens (Human), UniProt O60341)
# Test: LANCE LSD1/KDM1A demethylase assay (LSD1 histone demethylase biochemical assay)
# Conditions: 1 nM LSD-1 enzyme, 1 hour preincubation at 25° C., 0.4 μM Biotin-labeled Histone H3 peptide substrate
# Protocol: LSD1 Histone Demethylase Biochemical Assay
# LANCE LSD1/KDM1A demethylase assay-10 μL of 1 nM LSD-1 enzyme (ENZO BML-SE544-0050) in the assay buffer (50 mM Tris, pH 7.5, 0.01% Tween-20, 25 mM NaCl, 5 mM DTT) were preincubated for 1 hour at 25° C. with 0.8 μL compound/DMSO dotted in black 384 well polystyrene plates. […] Reactions were stopped by addition of 10 μL 1× LANCE Detection Buffer (PerkinElmer CR97-100) supplemented with 1.5 nM Eu-anti-unmodified H3K4 Antibody (PerkinElmer TRF0404), and 225 nM LANCE Ultra Streptavidin (PerkinElmer TRF102) along with 0.9 mM Tranylcypromine-HCl (Millipore 616431). After stopping the reactions plates were incubated for 30 minutes and read on a PHERAstar FS plate reader (BMG Labtech).
row,Compound,IC50 [µM]
1,"Cc1cc(-c2c(-c3ccc(C#N)cc3)cc(OC[C@@H]3CCCN(C)C3)c3cncn23)cc(F)c1CO [Example 75, 4-(5-[3-fluoro-4-(hydroxymethyl)-5-methylphenyl]-8-{[(3R)-1-methylpiperidin-3-yl]methoxy}imidazo[1,5-a]pyridin-6-yl)benzonitrile]",≤ 0.05
2,"Cc1cc(-c2c(-c3ccc(C#N)cc3)nc(OC[C@@H]3CCCN(C)C3)c3cncn23)cnc1C [Example 86, 4-(5-(5,6-dimethylpyridin-3-yl)-8-{[(3R)-1-methylpiperidin-3-yl]methoxy}imidazo[1,5-a]pyrazin-6-yl)benzonitrile]",≤ 0.05
3,"CN1C(=O)COc2cc(-c3c(-c4ccc(C#N)cc4)nc(N4CCC(N(C)C)CC4)c4cncn34)cnc21 [Example 105, 4-[8-[4-(dimethylamino)piperidin-1-yl]-5-(4-methyl-3-oxo-3,4-dihydro-2H-pyrido[3,2-b][1,4]oxazin-7-yl)imidazo[1,5-a]pyrazin-6-yl]benzonitrile]",≤ 0.05
4,"CN(C)C1CCN(c2nc(-c3ccc(C#N)cc3)c(-c3ccc4c(c3)oc(=O)n4C)n3cncc23)CC1 [Example 51, 4-[8-[4-(dimethylamino)piperidin-1-yl]-5-(3-methyl-2-oxo-2,3-dihydro-1,3-benzoxazol-6-yl)imidazo[1,5-a]pyrazin-6-yl]benzonitrile]",≤ 0.05
5,"CN(C)C1CCN(c2nc(-c3ccc(C#N)cc3)c(-c3ccc4c(c3)CC(O)C4)n3cncc23)CC1 (racemic) [Example 136, 4-[8-[4-(dimethylamino)piperidin-1-yl]-5-(2-hydroxy-2,3-dihydro-1H-inden-5-yl)imidazo[1,5-a]pyrazin-6-yl]benzonitrile]",≤ 0.05
6,"CN(C)C1CCN(c2nc(-c3ccc(C#N)cc3)c(-c3cc(F)c4c(c3)n(C)c(=O)n4C)n3cncc23)CC1 [Example 138, 4-(8-(4-(dimethylamino)piperidin-1-yl)-5-(7-fluoro-1,3-dimethyl-2-oxo-2,3-dihydro-1H-benzo[d]imidazol-5-yl)imidazo[1,5-a]pyrazin-6-yl)benzonitrile]",≤ 0.05
7,"CN(C)C1CCN(c2nc(-c3ccc(C#N)cc3)c(-c3ccc4nccnc4c3)n3cncc23)CC1 [Example 103, 4-(8-(4-(dimethylamino)piperidin-1-yl)-5-(quinoxalin-6-yl)imidazo[1,5-a]pyrazin-6-yl)benzonitrile]",≤ 0.05
8,"CN1CCC[C@@H](COc2cc(-c3ccc(C#N)cc3)c(-c3ccc4c(c3)CC(=O)N4C)n3cncc23)C1 [Example 64, (R)-4-(5-(1-methyl-2-oxoindolin-5-yl)-8-((1-methylpiperidin-3-yl)methoxy)imidazo[1,5-a]pyridin-6-yl)benzonitrile]",≤ 0.05
9,"CN1CCC[C@@H](COc2nc(-c3ccc(C#N)cc3)c(-c3cc(F)c(CO)c(F)c3)n3cncc23)C1 [Example 47, 4-(5-[3,5-difluoro-4-(hydroxymethyl)phenyl]-8-{[(3R)-1-methylpiperidin-3-yl]methoxy}imidazo[1,5-a]pyrazin-6-yl)benzonitrile]",≤ 0.05
10,"Cc1ncc(-c2c(-c3ccc(C#N)cc3)cc(OC[C@@H]3CCCN(C)C3)c3cncn23)cc1O [Example 76, 4-(5-(5-hydroxy-6-methylpyridin-3-yl)-8-{[(3R)-1-methylpiperidin-3-yl]methoxy}imidazo[1,5-a]pyridin-6-yl)benzonitrile]",≤ 0.05
11,"COC(=O)N(C)Cc1ccc(-c2c(-c3ccc(C#N)cc3)nc(OC[C@@H]3CCCN(C)C3)c3cncn23)cc1F [Example 48, methyl [4-(6-(4-cyanophenyl)-8-{[(3R)-1-methylpiperidin-3-yl]methoxy}imidazo[1,5-a]pyrazin-5-yl)-2-fluorobenzyl]methylcarbamate]",≤ 0.05
12,"CN1CCC[C@@H](COc2cc(-c3ccc(C#N)cc3)c(-c3cc(F)c(CO)c(F)c3)n3cncc23)C1 [Example 73, (R)-4-(5-(3,5-difluoro-4-(hydroxymethyl)phenyl)-8-((1-methylpiperidin-3-yl)methoxy)imidazo[1,5-a]pyridin-6-yl)benzonitrile]",≤ 0.05
13,"CN1CCC[C@@H](COc2cc(-c3ccc(C#N)cc3)c(-c3ccc(N4CCCC4=O)nc3)n3cncc23)C1 [Example 71, (R)-4-(8-((1-methylpiperidin-3-yl)methoxy)-5-(6-(2-oxopyrrolidin-1-yl)pyridin-3-yl)imidazo[1,5-a]pyridin-6-yl)benzonitrile]",≤ 0.05
14,"COC(=O)N(C)c1ccc(-c2c(-c3ccc(C#N)cc3)nc(OC[C@@H]3CCCN(C)C3)c3cncn23)cc1F [Example 87, (R)-methyl (4-(6-(4-cyanophenyl)-8-((1-methylpiperidin-3-yl)methoxy)imidazo[1,5-a]pyrazin-5-yl)-2-fluorophenyl)(methyl)carbamate]",≤ 0.05
15,"N#Cc1ccc(-c2cc(OC[C@@H]3CCNC3)c3cncn3c2-c2ccc(CCN3CCOCC3)cc2)cc1 [Example 18, 4-{5-[4-(2-morpholin-4-ylethyl)phenyl]-8-[(3R)-pyrrolidin-3-ylmethoxy]imidazo[1,5-a]pyridin-6-yl}benzonitrile]",≤ 0.05
16,"CN1CCC[C@@H](COc2cc(-c3ccc(C#N)cc3)c(-c3cnc4c(c3)OCCN4C)n3cncc23)C1 [Example 116, (R)-4-(5-(4-methyl-3,4-dihydro-2H-pyrido[3,2-b][1,4]oxazin-7-yl)-8-((1-methylpiperidin-3-yl)methoxy)imidazo[1,5-a]pyridin-6-yl)benzonitrile]",≤ 0.05
17,"Cc1nc2cc(-c3c(-c4ccc(C#N)cc4)cc(OC[C@@H]4CCCN(C)C4)c4cncn34)ccc2n1C [Example 153, 4-(5-(1,2-dimethyl-1H-benzimidazol-5-yl)-8-{[(3R)-1-methylpiperidin-3-yl]methoxy}imidazo[1,5-a]pyridin-6-yl)benzonitrile]",≤ 0.05
18,"Cn1ncc2cc(-c3c(-c4ccc(C#N)cc4)nc(OC[C@@H]4CCCN(CCO)C4)c4cncn34)cnc21 [Example 37, 4-[8-{[(3R)-1-(2-hydroxyethyl)piperidin-3-yl]methoxy}-5-(1-methyl-1H-1-pyrazolo[3,4-b]pyridin-5-yl)imidazo[1,5-a]pyrazin-6-yl]benzonitrile]",≤ 0.05
19,"CN1CCC[C@@H](COc2nc(-c3ccc(C#N)cc3)c(-c3ccc4c(c3)ncn4C)n3cncc23)C1 [Example 28, 4-(5-(1-methyl-1H-benzimidazol-5-yl)-8-{[(3R)-1-methylpiperidin-3-yl]methoxy}imidazo[1,5-a]pyrazin-6-yl)benzonitrile]",≤ 0.05
20,"CN1CCC[C@@H](COc2cc(-c3ccc(C#N)cc3)c(-c3cnc(N4CCOCC4)c(F)c3)n3cncc23)C1 [Example 78, 4-(5-(5-fluoro-6-morpholin-4-ylpyridin-3-yl)-8-{[(3R)-1-methylpiperidin-3-yl]methoxy}imidazo[1,5-a]pyridin-6-yl)benzonitrile]",≤ 0.05
21,"CN(C)C1CCN(c2nc(-c3ccc(C#N)cc3)c(-c3ccc4c(c3)ncn4C)n3cncc23)CC1 [Example 83, 4-[8-[4-(dimethylamino)piperidin-1-yl]-5-(1-methyl-1H-benzimidazol-5-yl)imidazo[1,5-a]pyrazin-6-yl]benzonitrile]",≤ 0.05
22,"COc1ncc(-c2c(-c3ccc(C#N)cc3)nc(N3CCC(N(C)C)CC3)c3cncn23)cc1F [Example 90, 4-[8-[4-(dimethylamino)piperidin-1-yl]-5-(5-fluoro-6-methoxypyridin-3-yl)imidazo[1,5-a]pyrazin-6-yl]benzonitrile]",≤ 0.05
23,"COc1ccc(-c2c(-c3ccc(C#N)cc3)cc(OC[C@@H]3CCCN(C)C3)c3cncn23)cn1 [Example 72, 4-(5-(6-methoxypyridin-3-yl)-8-{[(3R)-1-methylpiperidin-3-yl]methoxy}imidazo[1,5-a]pyridin-6-yl)benzonitrile]",≤ 0.05
24,"CN1C(=O)OCc2cc(-c3c(-c4ccc(C#N)cc4)nc(N4CCC(N(C)C)CC4)c4cncn34)ccc21 [Example 106, 4-[8-[4-(dimethylamino)piperidin-1-yl]-5-(1-methyl-2-oxo-1,4-dihydro-2H-3,1-benzoxazin-6-yl)imidazo[1,5-a]pyrazin-6-yl]benzonitrile]",≤ 0.05
25,"CN1CCC[C@@H](COc2nc(-c3ccc(C#N)cc3)c(-c3cnc4c(ccn4C)c3)n3cncc23)C1 [Example 85, 4-[8-{[(3R)-1-methylpiperidin-3-yl]methoxy}-5-(1-methyl-1H-pyrrolo[2,3-b]pyridin-5-yl)imidazo[1,5-a]pyrazin-6-yl]benzonitrile]",≤ 0.05
26,"Cc1cc(-c2c(-c3ccc(C#N)cc3)nc(OC[C@@H]3CCCN(C)C3)c3cncn23)ccc1CO [Example 45, 4-(5-[4-(hydroxymethyl)-3-methylphenyl]-8-{[(3R)-1-methylpiperidin-3-yl]methoxy}imidazo[1,5-a]pyrazin-6-yl)benzonitrile]",≤ 0.05
27,"COCCN1CCC[C@@H](COc2cc(-c3ccc(C#N)cc3)c(-c3cnc4c(c3)OCCO4)n3cncc23)C1 [Example 115, (R)-4-(5-(2,3-dihydro-[1,4]dioxino[2,3-b]pyridin-7-yl)-8-((1-(2-methoxyethyl)piperidin-3-yl)methoxy)imidazo[1,5-a]pyridin-6-yl)benzonitrile]",≤ 0.05
28,"CN1C(=O)CCc2cc(-c3c(-c4ccc(C#N)cc4)nc(N4CCC(N(C)C)CC4)c4cncn34)ccc21 [Example 137, 4-[8-[4-(dimethylamino)piperidin-1-yl]-5-(1-methyl-2-oxo-1,2,3,4-tetrahydroquinolin-6-yl)imidazo[1,5-a]pyrazin-6-yl]benzonitrile]",≤ 0.05
